Where no end group is shown, it is not given here.
Assays:
[1] = test system: spontaneously hypertensive rats (SHR); assay: Antihypertensive effect of GLP in SHR after oral administration; type: in vivo, rat; details: captopril 30 mg/kg·bw
Description: SHRs (male, 10 weeks, 220 ± 20 g body weight) were supplied by Vital River Laboratory Animal Technology Co., Ltd. (Beijing, China). […] Three doses of GLP (1200, 1500, 1800 mg/kg of body weight, BW) was orally administered to SHRs. The blank group (saline) and Captopril (30 mg/kg·bw) group were used as negative and positive control, respectively. BP-98A blood pressure monitor (Softron Biotechnology, Beijing, China) was used to determine blood pressure by the tail-cuff method. […] Animals were treated in accordance with the guidelines of the National Institutes of Health and Use of Laboratory Animals.

ACE from rabbit lung = target: T1, ACE from rabbit lung (Oryctolagus cuniculus, UniProt P12822); assay: ACE-inhibitory activity assay (HHL substrate, hippuric acid by RP-HPLC); type: biochemical; details: HHL 5 mM, pH 8.3, 37 °C, 45 min; for inhibition at 1000 µg/mL: synthetic peptides dissolved at 1 mg/mL; for IC50: synthetic peptides, mean ± SD, SD, read-out: IC50 of ACE inhibition
T1 construct: ACE from rabbit lung (EC3.4.15.1); purchased Sigma-Aldrich; host or cells: rabbit lung tissue
T1 sequence (P12822 34-1310): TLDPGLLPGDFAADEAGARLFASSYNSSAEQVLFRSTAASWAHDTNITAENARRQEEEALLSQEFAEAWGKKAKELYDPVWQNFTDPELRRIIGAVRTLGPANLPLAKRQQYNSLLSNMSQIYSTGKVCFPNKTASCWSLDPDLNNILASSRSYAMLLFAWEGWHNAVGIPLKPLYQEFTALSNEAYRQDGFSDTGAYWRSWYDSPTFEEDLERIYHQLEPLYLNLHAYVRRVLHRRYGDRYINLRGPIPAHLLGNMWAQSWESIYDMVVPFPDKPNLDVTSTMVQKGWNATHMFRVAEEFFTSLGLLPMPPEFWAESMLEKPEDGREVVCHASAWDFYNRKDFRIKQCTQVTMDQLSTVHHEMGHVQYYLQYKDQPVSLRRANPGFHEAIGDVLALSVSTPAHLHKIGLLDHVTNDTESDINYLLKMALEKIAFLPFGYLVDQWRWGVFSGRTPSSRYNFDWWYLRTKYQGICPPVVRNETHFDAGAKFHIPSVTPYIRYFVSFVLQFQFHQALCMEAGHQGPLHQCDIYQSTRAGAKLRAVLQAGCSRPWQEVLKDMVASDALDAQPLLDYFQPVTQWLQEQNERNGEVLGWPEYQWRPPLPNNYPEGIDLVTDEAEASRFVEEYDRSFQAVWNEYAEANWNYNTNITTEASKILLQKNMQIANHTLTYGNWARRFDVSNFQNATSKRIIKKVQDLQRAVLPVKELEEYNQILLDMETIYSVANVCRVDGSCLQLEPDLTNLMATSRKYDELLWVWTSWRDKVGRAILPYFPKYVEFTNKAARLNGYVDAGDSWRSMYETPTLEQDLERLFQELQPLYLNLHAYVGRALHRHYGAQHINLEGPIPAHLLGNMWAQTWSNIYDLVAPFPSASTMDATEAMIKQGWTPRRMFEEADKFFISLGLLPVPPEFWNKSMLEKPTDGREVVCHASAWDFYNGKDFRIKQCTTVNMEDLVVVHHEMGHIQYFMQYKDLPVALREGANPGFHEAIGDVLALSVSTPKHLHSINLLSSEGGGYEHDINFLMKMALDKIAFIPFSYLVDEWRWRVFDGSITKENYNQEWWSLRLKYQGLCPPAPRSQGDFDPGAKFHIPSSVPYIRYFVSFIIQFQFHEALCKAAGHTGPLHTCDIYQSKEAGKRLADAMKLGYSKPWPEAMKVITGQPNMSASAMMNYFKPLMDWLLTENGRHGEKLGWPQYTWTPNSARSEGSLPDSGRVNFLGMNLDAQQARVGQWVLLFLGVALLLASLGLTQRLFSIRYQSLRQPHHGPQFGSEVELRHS
Description: The ACE-inhibitory activity was determined according to the method of Ma et al., with some modification. Briefly, 50 µL of sample in 0.1 mol/L borate buffer (pH 8.3, containing 0.3 M NaCl) was mixed with 150 µL of 5 mM hippuryl-l-histidyl-l-leucine (HHL) and incubated at 37 °C for 10 min. Then, the reaction was initiated by adding 50 µL of ACE solution (50 mU/mL) and incubating at 37 °C for 45 min. The reaction was then stopped by the addition of 250 µL of 1 M HCl. The formation of hippuric acid (HA) was measured by RP-HPLC (Waters, Milford, MA, USA) at 220 nm.
The screened and predicted potential ACE-inhibitory peptides were chemically synthesized at Genscript biotech corporation (Nanjing, China) using the Fmoc solid-phase method. […] Synthetic peptides were dissolved at 1 mg/mL for validation of their ACE-inhibitory activity.

Row | Compound | time course of antihypertensive effect compared with GLP [1] | inhibition at 1000 µg/mL (ACE from rabbit lung) | IC50 (ACE from rabbit lung)
1 | C[C@H](CS)C(=O)N1CCC[C@H]1C(=O)O [captopril] | reached its maximum effect faster than GLP | – | –
2 | RLVPVPY [RLVPVPY] | – | 87.7% | 9.18 ± 0.42 µM
3 | SFYYGK [SFYYGK] | – | 94.2% | 6.45 ± 0.22 µM

Source: paper PMC9739792, “Screening and Molecular Mechanisms of Novel ACE-Inhibitory Peptides from Gracilariopsis lemaneiformis” (International Journal of Molecular Sciences, 2022)
